Some test systems named below: MDA-N; SR leukemia; TK-10 renal; SK-MEL-28 melanoma; NCI-H460 lung; MCF7 breast; T-47D breast; SNB-75 CNS; HL-60(TB) leukemia; IGROV1 ovarian.
Common to all, as to test: NCI anticancer screen, dose series, 48 h

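All cell lines were grown in 96-well plates and treated with compound for 48 hours. Definition used: TGI = concentration required for complete inhibition of growth.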 Where a SMILES comes first, the peptide text is derived from it. [ ]: non-standard residue; d: D form. The star is where a group is joined. hSer = N[CH](CCO)C(=O)O; Boc = CC(C)(C)OC(=O)*

`Cc1ncc([N+](=O)[O-])n1CCN(C)CCCCn1ccnc1[N+](=O)[O-]`: the TGI with MDA-N, in the assay on SR leukemia, in the assay on TK-10 renal, in the assay on SK-MEL-28 melanoma, with NCI-H460 lung and in the assay on MCF7 breast was above 100 µM throughout. Besides, the TGI in the assay on T-47D breast, in the assay on SNB-75 CNS and in the assay on HL-60(TB) leukemia was above 100 µM in each case.
As for `O=C(C=P(c1ccccc1)(c1ccccc1)c1ccccc1)C12CC3CC(CC(C3)C1)C2`, the TGI was 30.8 µM with IGROV1 ovarian; 29.2 µM in the assay on MDA-N; above 100 µM with SR leukemia; 24.4 µM with TK-10 renal; 31.8 µM with SK-MEL-28 melanoma; 31.3 µM in the assay with NCI-H460 lung. The TGI in the assay on MCF7 breast is 35.8 µM; with T-47D breast, 38.2 µM; in the assay on SNB-75 CNS it was 33.3 µM; in the assay on HL-60(TB) leukemia, 27.1 µM.
Consider `COCCC(NC(=O)C(CC(C)C)NC(=O)OC(C)(C)C)C(N)=O` (stereo not drawn) (Boc-Leu-[hSer](Me)-NH2; configuration not given here), for which the TGI in the assay on IGROV1 ovarian, in the assay with MDA-N, in the assay on SR leukemia, in the assay with TK-10 renal, with SK-MEL-28 melanoma and in the assay on NCI-H460 lung was above 100 µM in each case. Also, the TGI in the assay on MCF7 breast, with T-47D breast, in the assay on SNB-75 CNS and with HL-60(TB) leukemia was above 100 µM in each case.
In the case of `CCOC(=O)NNC(=O)NCCNC(=O)NNC(=O)OCC`, the TGI with MDA-N, with SR leukemia, in the assay with TK-10 renal, in the assay with SK-MEL-28 melanoma, with NCI-H460 lung and with MCF7 breast was above 100 µM each time. Further, the TGI in the assay with T-47D breast, in the assay with SNB-75 CNS and with HL-60(TB) leukemia was above 100 µM each time.
For the compound `O=[N+]([O-])/C(C(Cl)=C(Cl)Cl)=C1\Nc2ccccc2O1`, the TGI is above 100 µM with IGROV1 ovarian; above 100 µM in the assay with MDA-N; 63.7 µM in the assay on SR leukemia; above 100 µM with TK-10 renal; above 100 µM in the assay with SK-MEL-28 melanoma; above 100 µM in the assay on NCI-H460 lung. For the same compound, the TGI in the assay on MCF7 breast was above 100 µM; in the assay with T-47D breast it was above 100 µM; in the assay on SNB-75 CNS, 64.8 µM; in the assay on HL-60(TB) leukemia, 48.7 µM.
On to `COC(=O)OC[C@H]1O[C@@H](n2cc(C)c(=O)[nH]c2=O)CC1OC(=O)OC` (stereo partly specified), for which the TGI with IGROV1 ovarian, in the assay with MDA-N, in the assay with SR leukemia, in the assay with TK-10 renal, in the assay with SK-MEL-28 melanoma and with NCI-H460 lung was above 100 µM throughout. The TGI with MCF7 breast, with T-47D breast, with SNB-75 CNS and in the assay with HL-60(TB) leukemia was above 100 µM throughout.
Take `CC(C)CN1CN(c2ccccc2)C2(CCN(CC(C)(c3ccc(F)cc3)C3OCCO3)CC2)C1=O` (stereo unspecified): the TGI was 19.6 µM in the assay on MDA-N; 12.8 µM in the assay on SR leukemia; 23.4 µM with TK-10 renal; 10 µM in the assay with SK-MEL-28 melanoma; 13.8 µM with MCF7 breast; 15.3 µM in the assay on T-47D breast. Besides, the values for the TGI in the assay with SNB-75 CNS and in the assay on HL-60(TB) leukemia were 20 µM and 12.8 µM, respectively.
In the case of `Oc1ccc(-c2cc(-c3c(O)cc(O)cc3O)on2)cc1`, the TGI in the assay with IGROV1 ovarian, with MDA-N, in the assay on SR leukemia, with TK-10 renal, in the assay with SK-MEL-28 melanoma and with NCI-H460 lung was above 100 µM each time. The TGI with MCF7 breast, with T-47D breast, in the assay on SNB-75 CNS and with HL-60(TB) leukemia was above 100 µM each time.
On to `N#Cc1c(-c2ccco2)c2c(n(C3OC(CO)C(O)C(O)C3O)c1=S)CCCC2` (stereo unspecified), for which the TGI in the assay on IGROV1 ovarian, in the assay on MDA-N, in the assay on SR leukemia, with TK-10 renal, in the assay with SK-MEL-28 melanoma and in the assay on NCI-H460 lung was above 100 µM in each case. Moreover, the TGI is above 100 µM with MCF7 breast, above 100 µM in the assay with T-47D breast, 0.0981 µM with SNB-75 CNS and above 100 µM with HL-60(TB) leukemia.
For `CSc1n[nH]c(N)c1C(=O)Nc1ccc(Cl)cc1`, the TGI with IGROV1 ovarian, in the assay with MDA-N, in the assay on SR leukemia, with TK-10 renal, in the assay with SK-MEL-28 melanoma and with NCI-H460 lung was above 100 µM throughout. The TGI in the assay on MCF7 breast, in the assay on T-47D breast, in the assay on SNB-75 CNS and with HL-60(TB) leukemia was above 100 µM each time.
`COC1/C=C\C=C(/C)C(=O)NC2=CC(=O)C(NCCCl)=C(CC(C)CC(OC)C(O)C(C)/C=C(/C)C1OC(N)=O)C2=O` (stereo unspecified): the TGI with IGROV1 ovarian was found to be 13.6 µM; in the assay on MDA-N, 12.3 µM; in the assay with SR leukemia it was 1.67 µM; with TK-10 renal, 14.3 µM; in the assay with SK-MEL-28 melanoma, 2.52 µM; in the assay on NCI-H460 lung, 2.52 µM. In addition, the TGI in the assay with MCF7 breast is 2.19 µM; in the assay with T-47D breast, 20.4 µM; with SNB-75 CNS, 3.81 µM; with HL-60(TB) leukemia, 3.23 µM.
With `CCC1(O)C=CC(=O)C=C1`, the TGI in the assay on IGROV1 ovarian was 40.6 µM; with MDA-N, above 100 µM; with SR leukemia, above 100 µM; in the assay on TK-10 renal, 45.6 µM; in the assay with SK-MEL-28 melanoma, 57.6 µM; with NCI-H460 lung, above 83.2 µM. Moreover, the TGI was above 100 µM in the assay on MCF7 breast, 67.7 µM in the assay on T-47D breast, above 96.1 µM in the assay on SNB-75 CNS and above 100 µM with HL-60(TB) leukemia.
`CC1C(c2ccc(N(C)C)cc2)c2cc3c(cc2OC1N1CCCC1)OCO3` (stereo unspecified): the TGI in the assay on IGROV1 ovarian is above 100 µM; with MDA-N, 46.9 µM; in the assay on SR leukemia, above 100 µM; in the assay on TK-10 renal it was above 100 µM; in the assay with SK-MEL-28 melanoma, above 100 µM; with NCI-H460 lung, above 95.3 µM. Further, the TGI is above 31.6 µM in the assay on MCF7 breast, above 100 µM in the assay on T-47D breast, above 73 µM with SNB-75 CNS and 73.6 µM in the assay with HL-60(TB) leukemia.

The record behind these values is PubChem BioAssay (NCI).
